From patent publication US5128331A, “Method for lowering plasma lipid levels or blood pressure” (priority 1988, dated 1992)
“Also recorded” adds a separate entry of the source. Read-outs that look alike come from different tables or passages of the source.

Key:
Format in all cases: in vivo
mice of the OF1 strain = experiment: Hypolipidemic activity: plasma cholesterol and plasma triglycerides in mice fed compound in chow; conditions: for change in vivo at 180 mg/kg: Mus musculus, feed or water, 240 h
Method: With the goal of finding new drugs which might be hypolipidemic, the new diphosphonates described in this patent application were administered orally to mice. This rodent species has plasma lipid level relatively close to man (generally greater than 150 mg/dl). For example, in mice receiving a normal diet the plasma cholesterol and triglyceride levels are in the range of 100 mg/dl, whereas for rat the comparative values are close to 50 mg/dl.
In every screening experiment, 30 mice of the OF1 strain weighing 25 to 35 g were divided into 5 groups of 6 animals each. Four groups received the compounds to be tested, or the reference drugs, the fifth group served as control. Compounds were dissolved in diethyl ether, and solution was added to the pelleted food and the ether was evaporated.
All compounds were tested at the final concentration of 0.1% in animal chow, equivalent to a daily intake of about 180 mg/kg. This diet was fed for 10 days, then after an overnight fasting the animals were sacrified by decapitation under ether anesthesia. Blood samples were collected in EDTA containing tubes.
Plasma cholesterol and plasma triglycerides were measured by enzymatic methods (Ames kit No. 6376 and No. 6630).

rat paw oedema = experiment: Anti-inflammatory activity: kappa carrageenan rat paw oedema model; conditions: for Inhibition of rat right hind paw volume increase, % Change from control: 4 hours post oedema induction, test compounds 100 mg/kg, indomethacin 30 mg/kg by gavage 1 hour prior; for anti-inflammatory activity (in words): rat paw oedema, 4 hours
Method: The effect of four selected diphosphates was investigated on the inflammatory response to kappa carrageenan in the rat paw oedema model. Eight male rats were employed per group. Oedema was induced in the right hind paw of each animal by a single injection into the plantar aponeurosis of 0.1 ml of a 1% w/v of kappa carrageena solution dissolved in 0.9% NaCl. The test compounds (100 mg/kg) and reference drug (indomethacin 30 mg/kg) were administered by gavage 1 hour prior to induction of oedema by carrageanan injection.
The volume of the right paw was measured for each animal at 0, 1, 2.5 and 4 hours after carrageenan injection (only 4 hour values are reported.

[1] = system: spontaneously hypertensive rat (SHR); experiment: Oral hypotensive activity in spontaneously hypertensive rats (SHR); conditions: for Percent change in blood pressure: 2 hours post dose, Table 5
Method: The spontaneously hypertensive rat (SHR) is a well established animal model of human arterial hypertension.
In screening experiments various gem-diphosphonates were dissolved in Tween-80 and administered orally to SH rats. Blood pressure was monitored hourly using a tailcuff method.

[2] = read-out: Cholesterol (% control)
[3] = read-out: Triglycerides (% control)
[4] = mice, 0.1% in animal chow (about 180 mg/kg daily), 10 days, Table 3, given as change from control, read-out: Cholesterol (% control)
[5] = mice, 0.1% in animal chow (about 180 mg/kg daily), 10 days, Table 3, given as change from control, read-out: Triglycerides (% control)

CCOP(=O)(OCC)C(Cc1cc(C(C)(C)C)c(O)c(C(C)(C)C)c1)P(=O)(OCC)OCC [Compound 4, Tetraethyl 2-(3,5-ditertiarybutyl-4-hydroxyphenyl)-ethylidene-1,1-diphosphonate] was tested, and the change in vivo at 180 mg/kg (mice of the OF1 strain; [2]) was -12%, the change in vivo at 180 mg/kg (mice of the OF1 strain; [3]) was -1% and the “hypocholesterolemic activity (in words)” value (mice of the OF1 strain; mice, 0.1% in chow, 10 days) was “hypocholesterolemic”. For the same compound, the “Inhibition of rat right hind paw volume increase, % Change from control” value (rat paw oedema) was “+1.5 % Change from control”, the “hypotensive potency compared with reference drugs (in words)” value [1] was “as potent as the reference drugs” and the “Percent change in blood pressure” value [1] was -34%.

In the case of CC(C)OP(=O)(OC(C)C)C(Cc1cc(C(C)(C)C)c(O)c(C(C)(C)C)c1)P(=O)(OC(C)C)OC(C)C [Compound 6], the change in vivo at 180 mg/kg (mice of the OF1 strain; [2]) is reported as -37%, the change in vivo at 180 mg/kg (mice of the OF1 strain; [3]) is reported as -34% and the “hypocholesterolemic activity (in words)” value (mice of the OF1 strain; mice, 0.1% in chow, 10 days) is reported as “hypocholesterolemic”. The “hypotriglyceridemia (in words)” value (mice of the OF1 strain; mice, 0.1% in chow, 10 days) was “significant hypotriglyceridemia”, the “hypotensive potency compared with reference drugs (in words)” value [1] was “as potent as the reference drugs” and the “Percent change in blood pressure” value [1] was -64%.

CCCCOP(=O)(OCCCC)C(Cc1cc(C(C)(C)C)c(O)c(C(C)(C)C)c1)P(=O)(OCCCC)OCCCC [Compound 7, Tetrabutyl 2-(3,5-ditertiary-4-hydroxyphenyl)-ethylidene-1,1-diphosphonate] was tested, and the change in vivo at 180 mg/kg (mice of the OF1 strain; [2]) was -23%, the change in vivo at 180 mg/kg (mice of the OF1 strain; [3]) was -15% and the “hypocholesterolemic activity (in words)” value (mice of the OF1 strain; mice, 0.1% in chow, 10 days) was “hypocholesterolemic”. For the same compound, the “hypotriglyceridemia (in words)” value (mice of the OF1 strain; mice, 0.1% in chow, 10 days) was “significant hypotriglyceridemia”, the “hypotensive potency compared with reference drugs (in words)” value [1] was “as potent as the reference drugs” and the “Percent change in blood pressure” value [1] was -30%.

With CC(C)(C)c1cc(CC(P(=O)(O)O)P(=O)(O)O)cc(C(C)(C)C)c1O [Compound 8, 2-(3,5-ditertiarybutyl-4-hydroxyphenyl)-ethylidene-1,1-diphosphonic acid] the change in vivo at 180 mg/kg (mice of the OF1 strain; [4]) was -2%, the change in vivo at 180 mg/kg (mice of the OF1 strain; [5]) was 19% and the “Inhibition of rat right hind paw volume increase, % Change from control” value (rat paw oedema) was -54.2 % Change from control. The “anti-inflammatory activity (in words)” value (rat paw oedema) was “significant inhibitory activities; also recorded: anti-inflammatory”.

For CCCCOP(=O)(OCCCC)C(Cc1cc(C(C)(C)C)c(O)c(C(C)(C)C)c1)P(=O)(OCC)OCC (stereo not drawn) [Compound 18], the change in vivo at 180 mg/kg (mice of the OF1 strain; [2]) was -31%, the change in vivo at 180 mg/kg (mice of the OF1 strain; [3]) was 60% and the “hypocholesterolemic activity (in words)” value (mice of the OF1 strain; mice, 0.1% in chow, 10 days) was “hypocholesterolemic”. For the same compound, the “hypotensive potency compared with reference drugs (in words)” value [1] was “as potent as the reference drugs” and the “Percent change in blood pressure” value [1] was -41%.

With CCOP(=O)(OCC)C(=Cc1cc(C(C)(C)C)c(O)c(C(C)(C)C)c1)P(=O)(OCC)OCC [Compound 33, Tetraethyl 2-(3,5-ditertiarybutyl-4-hydroxyphenyl)-ethenylidene-1,1-diphosphonate] the change in vivo at 180 mg/kg (mice of the OF1 strain; [2]) was -40%, the change in vivo at 180 mg/kg (mice of the OF1 strain; [3]) was -21% and the “hypocholesterolemic activity (in words)” value (mice of the OF1 strain; mice, 0.1% in chow, 10 days) was “hypocholesterolemic”. The “hypocholesterolemic potency (plasma cholesterol change)” value (mice of the OF1 strain; mice, 0.1% in chow, 10 days) was -40%, the “hypotriglyceridemia (in words)” value (mice of the OF1 strain; mice, 0.1% in chow, 10 days) was “significant hypotriglyceridemia” and the “Inhibition of rat right hind paw volume increase, % Change from control” value (rat paw oedema) was -5.8 % Change from control.

CC(C)(C)c1cc(C=C(P(=O)(O)O)P(=O)(O)O)cc(C(C)(C)C)c1O [Compound 36] was tested, and the change in vivo at 180 mg/kg (mice of the OF1 strain; [4]) was -9%, the change in vivo at 180 mg/kg (mice of the OF1 strain; [5]) was -5% and the “Inhibition of rat right hind paw volume increase, % Change from control” value (rat paw oedema) was -25.0 % Change from control. For the same compound, the “anti-inflammatory activity (in words)” value (rat paw oedema) was “significant inhibitory activities”.

In the case of COc1ccc2c(c1)c(CC(=O)O)c(C)n2C(=O)c1ccc(Cl)cc1 [Indomethacin, reference compound], the “Inhibition of rat right hind paw volume increase, % Change from control” value (rat paw oedema) is reported as -92.3 % Change from control and the “anti-inflammatory activity (in words)” value (rat paw oedema) is reported as “prevented completely the increase in paw volume”.
